Data set [1] is described as follows: Acute toxicity (LD50), intravenous administration, mouse. The following applies: in vivo. From the text: (§1) Ihre Toxizität ist geringer als die des aus einem Gemisch von Kondensationsprodukten aus m-Kresolsulfonsäuren und Formaldehyd bestehenden Handelsprodukts. In der nachstehenden Tabelle sind die bei intravenöser Verabreichung an Maus und Ratte ermittelten LDSo-Werte des Dinatriumsalzes der 2,2'-Dihydroxy-5,5'-methylendi-(p-toluolsulfonsäure) (A) und des mit Natriumhydroxid neutralisierten Handelsprodukts (B) aufgeführt.

Data set [2] is described as follows: Acute toxicity (LD50), intravenous administration, rat. The following applies: in vivo.
Source text: as §1

Data on one molecule can be found in patent EP0029990A1, “Biphenylmethane derivative, methods for its production and pharmaceutical compositions containing it” (Byk Gulden Lomberg Chemische Fabrik GmbH, priority 1979, dated 1981).

Regarding `Cc1cc(O)c(S(=O)(=O)O)cc1Cc1cc(S(=O)(=O)O)c(O)cc1C` [A, Dinatrium-2,2'-dihydroxy-5,5'-methylendi-(p-toluolsulfonat)-monohydrat], the LD50 (usually the dose at which mortality reaches 50%) stood at 1050 mg/kg in data set [1] (Maus ♀), 1100 mg/kg in data set [1] (Maus ♂), 990 mg/kg in data set [2] (Ratte ♀) and 930 mg/kg in data set [2] (Ratte ♂).
